One test addresses T1, Recombinant Src enzyme (Homo sapiens, UniProt P12931).
T1 construct: purchased Millipore 14-326; host or cells: Sf21 insect cells
Description: Src HTRF assay. The class given is biochemical. Summed up:
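Run as for the FAK HTRF assay (same buffer, supplements, compound preparation and procedure), with dasatinib included. Reaction contained 0.5 μM biotin-tagged Tyk2 synthetic peptide, 5 nM Src made in Sf21 cells, and a pH7.4-buffer-prepared component at 10 μM final.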

A further test deals with JAK2 (Homo sapiens, UniProt O60674). Description: JAK2 biochemical potency. Particulars: read-out: JAK2 HTRF IC50. A general note: Time-resolved FRET reads energy transfer from a long-lived donor to a nearby acceptor.
For a further test, the target named is T2, Phospho Src(Y416) (Homo sapiens, UniProt P12931).
T2 construct: endogenous in cells; host or cells: Panc1
Description: Phospho Src(Y416) Sandwich ELISA. The class given is cell-based. As to conditions: Panc1; read-out: pSrc EC50 (μM) Panc1. (In general: In an ELISA, binding on a coated surface is turned into a signal by an enzyme label.)

Each structure is given as a SMILES string.

Chain of JAK2 (O60674 whole entry, species assumed): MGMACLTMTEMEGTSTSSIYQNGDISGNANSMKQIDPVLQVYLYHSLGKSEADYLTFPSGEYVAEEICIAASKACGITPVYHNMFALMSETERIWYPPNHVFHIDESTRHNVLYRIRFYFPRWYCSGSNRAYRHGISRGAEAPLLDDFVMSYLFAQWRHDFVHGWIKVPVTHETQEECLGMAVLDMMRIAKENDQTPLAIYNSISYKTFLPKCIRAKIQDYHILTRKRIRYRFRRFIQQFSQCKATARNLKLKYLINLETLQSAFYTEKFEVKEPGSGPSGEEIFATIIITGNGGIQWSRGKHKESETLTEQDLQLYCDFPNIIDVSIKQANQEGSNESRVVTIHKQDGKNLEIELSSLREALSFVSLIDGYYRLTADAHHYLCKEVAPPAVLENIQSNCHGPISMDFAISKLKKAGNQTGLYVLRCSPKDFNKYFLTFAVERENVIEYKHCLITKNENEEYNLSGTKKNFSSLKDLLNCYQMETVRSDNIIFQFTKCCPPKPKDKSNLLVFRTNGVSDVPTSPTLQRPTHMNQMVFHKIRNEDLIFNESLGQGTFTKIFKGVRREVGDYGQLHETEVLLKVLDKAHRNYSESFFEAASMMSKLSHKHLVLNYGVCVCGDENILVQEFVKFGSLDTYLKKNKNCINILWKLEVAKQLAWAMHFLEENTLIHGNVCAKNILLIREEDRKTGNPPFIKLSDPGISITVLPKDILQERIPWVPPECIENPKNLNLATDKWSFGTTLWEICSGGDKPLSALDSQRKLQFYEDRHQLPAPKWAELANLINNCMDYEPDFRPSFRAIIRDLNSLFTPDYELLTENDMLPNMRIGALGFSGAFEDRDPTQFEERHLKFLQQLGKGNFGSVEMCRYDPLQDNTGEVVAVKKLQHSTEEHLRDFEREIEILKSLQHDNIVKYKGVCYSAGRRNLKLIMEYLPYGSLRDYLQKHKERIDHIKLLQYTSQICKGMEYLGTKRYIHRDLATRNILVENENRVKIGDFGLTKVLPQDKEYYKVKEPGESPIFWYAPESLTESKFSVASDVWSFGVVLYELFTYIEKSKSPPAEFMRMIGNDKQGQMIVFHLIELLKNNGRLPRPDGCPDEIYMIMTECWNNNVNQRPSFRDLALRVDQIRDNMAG
T1 sequence (P12931 whole entry): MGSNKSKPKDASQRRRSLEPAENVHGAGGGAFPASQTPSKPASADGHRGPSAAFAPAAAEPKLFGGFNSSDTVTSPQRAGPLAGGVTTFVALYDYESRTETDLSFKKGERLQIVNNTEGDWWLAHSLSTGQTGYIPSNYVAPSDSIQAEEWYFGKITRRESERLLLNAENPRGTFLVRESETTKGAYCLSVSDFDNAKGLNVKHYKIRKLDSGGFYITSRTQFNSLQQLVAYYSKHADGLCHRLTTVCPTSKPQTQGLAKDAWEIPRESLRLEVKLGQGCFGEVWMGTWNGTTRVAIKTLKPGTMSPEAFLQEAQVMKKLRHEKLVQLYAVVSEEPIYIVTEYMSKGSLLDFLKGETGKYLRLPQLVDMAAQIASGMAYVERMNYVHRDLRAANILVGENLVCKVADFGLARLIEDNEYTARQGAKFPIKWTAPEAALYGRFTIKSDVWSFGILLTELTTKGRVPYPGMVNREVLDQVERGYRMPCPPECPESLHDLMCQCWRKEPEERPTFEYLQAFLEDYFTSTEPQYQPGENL
T2 sequence (P12931 whole entry): as above

A word on the IC50: it is the midpoint of a concentration-inhibition curve. As usually defined, the EC50 is the concentration that produces a half-maximal response. Regarding `O=C1CCc2cc(Nc3ncc4cnn(Cc5ccccc5OC(F)F)c4n3)ccc2N1` [Example 21], the half-inhibitory concentration (IC50) at Recombinant Src enzyme and at JAK2 was < 20 nM in each case. The EC50 on Phospho Src(Y416) is > 1 µM.
For `FC(F)Oc1ccccc1Cn1ccc2cnc(Nc3ccc4ncsc4c3)nc21` [Example 36], the IC50 on JAK2 was < 20 nM. The EC50 at Phospho Src(Y416) is > 1 µM.
Regarding `CC(=O)Nc1cccc(Nc2cc3c(cn2)cnn3Cc2ccccc2OC(F)F)c1` [Example 64], the EC50 on Phospho Src(Y416) was > 1 µM.
Same read-out and setting: the same measure for `FC(F)Oc1ccccc1Cn1ncc2cnc(Nc3ccc4ncsc4c3)cc21` [Example 82]: > 1 µM.
Turning to `CN(c1ncccc1Cn1ncc2cnc(Nc3ccc4[nH]c(=O)[nH]c4c3)cc21)S(C)(=O)=O` [Example 142], the IC50 on Recombinant Src enzyme was > 1000 nM. The EC50 at Phospho Src(Y416) is > 1 µM.
The like results for `O=C1CCc2cc(Nc3ncc4ccn(S(=O)(=O)c5cccc6cccnc56)c4n3)ccc2N1` [Example 169] were, in that order, < 20 nM and > 1 µM.
In the case of `CN(c1ncccc1Cn1ccc2cnc(Nc3ccc(NCCO)cc3)nc21)S(C)(=O)=O` [Example 201], the IC50 on JAK2 is < 20 nM. Further, the EC50 at Phospho Src(Y416) is > 1 µM.
With `CN(c1ncccc1Cn1ncc2cnc(Nc3ccc4c(c3)CCC(=O)N4)nc21)S(C)(=O)=O` [Example 202], the IC50 at Recombinant Src enzyme and at JAK2 was < 20 nM each time. Also, the EC50 on Phospho Src(Y416) was > 1 µM.
Turning to `O=C1CCc2cc(Nc3ncc4ccn(Cc5cccnc5N5CCCS5(=O)=O)c4n3)ccc2N1` [Example 216], the IC50 on Recombinant Src enzyme was < 20 nM.
For `O=S(=O)(c1cccc2nsnc12)n1ccc2cnc(Nc3ccc(N4CCNCC4)cc3)nc21` [Example 253], the IC50 on JAK2 is < 20 nM. Moreover, the EC50 at Phospho Src(Y416) is > 1 µM.
With `Cn1cc(Nc2ncc3ccn(S(=O)(=O)c4cccc5cccnc45)c3n2)cn1` [Example 318], at Phospho Src(Y416), the EC50 was > 1 µM.
Regarding `COc1cc(N2CCNCC2)ccc1Nc1cc2c(ccn2S(=O)(=O)c2cccc3cccnc23)cn1` [Example 330, N-(2-Methoxy-4-(piperazin-1-yl)phenyl)-1-(quinolin-8-ylsulfonyl)-1H-pyrrolo[3,2-c]pyridin-6-amine], the IC50 at Recombinant Src enzyme and at JAK2 was > 1000 nM each time.
For `Cc1cc(Nc2ncc3cnn(S(=O)(=O)c4cccc5cccnc45)c3n2)ccc1N1CCNCC1` [Example 332], the IC50 on Recombinant Src enzyme is < 20 nM.
On to `COc1ccccc1S(=O)(=O)n1ncc2cnc(Nc3ccc(N4CCNCC4)cc3)nc21` [Example 335], for which, on Phospho Src(Y416), the EC50 was > 1 µM.
On the same count and under the same terms, the same measure for `CN(c1ncccc1Cn1ccc2cnc(Nc3ccc(N4CCCC4CO)cc3)nc21)S(C)(=O)=O` (stereo not shown) [Example 536]: > 1 µM.

Values taken from US20160222014A1, “COMPOUNDS FOR REGULATING FAK AND/OR SRC PATHWAYS” (ASANA BIOSCIENCES, LLC, priority 2013, published 2016).
